ChEMBL document CHEMBL5036318, “Synthesis and Biological Evaluation of Phosphoester and Phosphorothioate Prodrugs of STING Agonist 3',3'-c-Di(2'F,2'dAMP)” (J Med Chem, 2021)
pEC50: −log10 of the molar value.

Key:
[1] = molecular target: T1, Stimulator of interferon genes protein (Homo sapiens, UniProt Q86WV6); experiment: Potency index, ratio of test compound EC50 to prodrug EC50 for activation of wild-type human STING expressed in human THP1-Dual cells co-expressing IRF3-activated ISRE assessed as IRF3 reporter activation measured after 30 mins by luciferase reporter gene assay; type: cell-based
[2] = molecular target: T1, Stimulator of interferon genes protein; experiment: Activation of wild-type human STING expressed in HEK293T cells co-expressing IRF3-activated ISRE assessed as IRF3 reporter activation measured after 30 mins by luciferase reporter gene assay; type: cell-based
[3] = molecular target: T1, Stimulator of interferon genes protein; experiment: Potency index, ratio of test compound EC50 to prodrug EC50 for activation of wild-type human STING expressed in HEK293T cells co-expressing IRF3-activated ISRE assessed as IRF3 reporter activation measured after 30 mins by luciferase reporter gene assay; type: cell-based
[4] = molecular target: T1, Stimulator of interferon genes protein; experiment: Activation of wild-type human STING expressed in HEK293T cells co-expressing IRF3-activated ISRE assessed as IRF3 reporter activation measured after 7 hrs by luciferase reporter gene assay; type: cell-based
[5] = molecular target: T1, Stimulator of interferon genes protein; experiment: Potency index, ratio of test compound EC50 to prodrug EC50 for activation of wild-type human STING expressed in HEK293T cells co-expressing IRF3-activated ISRE assessed as IRF3 reporter activation measured after 7 hrs by luciferase reporter gene assay; type: cell-based
[6] = molecular target: T1, Stimulator of interferon genes protein; experiment: Activation of wild-type human STING expressed in digitonin treated human THP1-Dual cells co-expressing IRF3-activated ISRE assessed as IRF3 reporter activation measured after 30 mins by luciferase reporter gene assay; type: cell-based
[7] = molecular target: T1, Stimulator of interferon genes protein; experiment: Activation of wild-type human STING expressed in human THP1-Dual cells co-expressing IRF3-activated ISRE assessed as IRF3 reporter activation measured after 7 hrs by luciferase reporter gene assay; type: cell-based
[8] = molecular target: T1, Stimulator of interferon genes protein; experiment: Potency index, ratio of test compound EC50 to prodrug EC50 for activation of wild-type human STING expressed in digitonin treated THP1-Dual cells co-expressing IRF3-activated ISRE assessed as IRF3 reporter activation measured after 7 hrs by luciferase reporter gene assay; type: cell-based
[9] = Induction of INF-alpha production in healthy human PBMC incubated for 16 hrs; type: functional, tissue-based
[10] = Potency index, ratio of test compound EC50 to prodrug EC50 for induction of INF-alpha production in healthy human PBMC incubated for 16 hrs; type: functional
[11] = Induction of INF-gamma production in healthy human PBMC incubated for 16 hrs; type: functional, tissue-based
[12] = Potency index, ratio of test compound EC50 to prodrug EC50 for induction of INF-gamma production in healthy human PBMC incubated for 16 hrs; type: functional
[13] = Induction of TNF-alpha production in healthy human PBMC incubated for 16 hrs; type: functional, tissue-based
[14] = Potency index, ratio of test compound EC50 to prodrug EC50 for induction of TNF-alpha production in healthy human PBMC incubated for 16 hrs; type: functional
[15] = Activation of human STING Q mutant expressed in digitonin treated HEK293T cells co-expressing IRF3-activated ISRE assessed as IRF3 reporter activation by luciferase reporter gene assay; type: cell-based; conditions: HEK-293T
cells = conditions: Homo sapiens, HEK-293T
Description: Activation of human STING REF mutant expressed in digitonin treated HEK293T cells co-expressing IRF3-activated ISRE assessed as IRF3 reporter activation by luciferase reporter gene assay

[16] = molecular target: Stimulator of interferon genes protein (Homo sapiens, UniProt Q86WV6, G230A/R293Q/R71H); experiment: Activation of human STING HAQ mutant expressed in digitonin treated HEK293T cells co-expressing IRF3-activated ISRE assessed as IRF3 reporter activation by luciferase reporter gene assay; type: cell-based
[17] = molecular target: Stimulator of interferon genes protein (Homo sapiens, UniProt Q86WV6, G230A/R293Q); experiment: Activation of human STING QA mutant expressed in digitonin treated HEK293T cells co-expressing IRF3-activated ISRE assessed as IRF3 reporter activation by luciferase reporter gene assay; type: cell-based
[18] = molecular target: T1, Stimulator of interferon genes protein; experiment: Activation of wild-type human STING expressed in digitonin treated HEK293T cells co-expressing IRF3-activated ISRE assessed as IRF3 reporter activation by luciferase reporter gene assay; type: cell-based

T1 sequence (Q86WV6 whole entry): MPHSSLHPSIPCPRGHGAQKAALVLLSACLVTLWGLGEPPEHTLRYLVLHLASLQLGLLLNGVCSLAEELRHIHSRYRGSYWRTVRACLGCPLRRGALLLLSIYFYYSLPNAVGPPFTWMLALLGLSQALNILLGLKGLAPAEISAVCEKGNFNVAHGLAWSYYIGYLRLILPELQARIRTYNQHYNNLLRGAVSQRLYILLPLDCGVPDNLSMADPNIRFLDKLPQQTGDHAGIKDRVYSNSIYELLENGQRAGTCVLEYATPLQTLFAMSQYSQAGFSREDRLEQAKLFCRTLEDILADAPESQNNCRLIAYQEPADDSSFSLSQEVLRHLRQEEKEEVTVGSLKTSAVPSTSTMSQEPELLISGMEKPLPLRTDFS
Sequence of Stimulator of interferon genes protein (Homo sapiens, UniProt Q86WV6, G230A/R293Q/R71H) (Q86WV6 whole entry R71H/G230A/R293Q): as the sequence (Q86WV6 whole entry) above, with R71H, G230A, R293Q counted along it
Sequence of Stimulator of interferon genes protein (Homo sapiens, UniProt Q86WV6, G230A/R293Q) (Q86WV6 whole entry G230A/R293Q): as the sequence (Q86WV6 whole entry) above, with G230A, R293Q counted along it

SMILES | Ratio EC50 [1] | pEC50 [2] | Ratio EC50 [3] | pEC50 [4] | Ratio EC50 [5] | pEC50 [6] | pEC50 [7] | Ratio EC50 [8] | pEC50 [9] | Ratio EC50 [10] | pEC50 [11] | Ratio EC50 [12] | pEC50 [13] | Ratio EC50 [14] | pEC50 [15] | pEC50 (cells) | pEC50 [16] | pEC50 [17] | pEC50 [18]
CCC(CC)C(=O)OCO[P@]1(=O)OC[C@H]2O[C@@H](n3cnc4c(N)ncnc43)[C@H](F)[C@@H]2OP(=O)(O)OC[C@H]2O[C@@H](n3cnc4c(N)ncnc43)[C@H](F)[C@@H]2O1 | 20 | 5.87 | 71 | 6.35 | 18 | 6.01 | 6.82 | 7 |  |  |  |  |  |  |  |  |  |  | 
CC(C)(C)C(=O)OCS[P@@]1(=O)OC[C@H]2O[C@@H](n3cnc4c(N)ncnc43)[C@H](F)[C@@H]2O[P@@](=O)(SCOC(=O)C(C)(C)C)OC[C@H]2O[C@@H](n3cnc4c(N)ncnc43)[C@H](F)[C@@H]2O1 | 152 | 7.40 | 62 | 7.15 | 23 | 7.10 | 7.30 | 159 | 6.14 | 41 | 5.92 | 8 | 6.74 | 146 |  |  |  |  | 
Nc1nc2c(ncn2[C@@H]2O[C@@H]3COP(=O)(O)O[C@H]4[C@@H](O)[C@H](n5cnc6c(=O)[nH]c(N)nc65)O[C@@H]4COP(=O)(O)O[C@H]3[C@H]2O)c(=O)[nH]1 |  |  |  |  |  |  |  |  |  |  |  |  |  |  | < 4.35 | 5.08 |  |  | 
CC(C)(C)C(=O)OCS[P@]1(=O)OC[C@H]2O[C@@H](n3cnc4c(N)ncnc43)[C@H](F)[C@@H]2O[P@](=O)(SCOC(=O)C(C)(C)C)OC[C@H]2O[C@@H](n3cnc4c(N)ncnc43)[C@H](F)[C@@H]2O1 | 55 | 6.74 | 38 | 6.92 | 10 | 7.22 | 7.70 | 15 | 6.89 | 301 | 7.05 | 68 | 7.00 | 93 |  |  |  |  | 
CCC(CC)C(=O)OCO[P@]1(=O)OC[C@H]2O[C@@H](n3cnc4c(N)ncnc43)[C@H](F)[C@@H]2O[P@](=O)(OCOC(=O)C(CC)CC)OC[C@H]2O[C@@H](n3cnc4c(N)ncnc43)[C@H](F)[C@@H]2O1 |  | 7.15 |  | 8.00 |  | 6.96 | 7.70 |  | 7.30 | 985 | 8.40 | 2135 | 7.70 | 1485 |  |  |  |  | 
Nc1ncnc2c1ncn2[C@@H]1O[C@@H]2COP(=O)(O)O[C@H]3[C@@H](O)[C@H](n4cnc5c(N)ncnc54)O[C@@H]3COP(=O)(O)O[C@H]2[C@H]1O |  |  |  |  |  |  |  |  |  |  |  |  |  |  | 5.15 |  | 6.72 | 6.77 | 
Nc1ncnc2c1ncn2[C@@H]1O[C@@H]2CO[P@@](=O)(OCOC(=O)c3ccccc3)O[C@H]3[C@@H](F)[C@H](n4cnc5c(N)ncnc54)O[C@@H]3CO[P@](=O)(OCOC(=O)c3ccccc3)O[C@H]2[C@H]1F |  |  |  | 7.40 |  | 6.48 | 7.40 |  | 6.15 |  | 7.52 |  | 6.64 |  |  |  |  |  | 
CC(C)(C)C(=O)OCS[P@@]1(=O)OC[C@H]2O[C@@H](n3cnc4c(N)ncnc43)[C@H](F)[C@@H]2O[P@](=O)(SCOC(=O)C(C)(C)C)OC[C@H]2O[C@@H](n3cnc4c(N)ncnc43)[C@H](F)[C@@H]2O1 | 94 | 7.40 | 14 | 7.40 | 3 | 7.52 | 7.70 | 18 | 7.15 | 260 | 7.30 | 222 | 7.00 | 82 |  |  |  |  | 
Nc1nc2c(ncn2[C@@H]2O[C@@H]3COP(=O)(O)O[C@@H]4[C@H](O)[C@@H](COP(=O)(O)O[C@@H]2[C@@H]3O)O[C@H]4n2cnc3c(N)ncnc32)c(=O)[nH]1 |  | 4.07 |  | 4.93 |  | 4.55 | 5.58 |  | 4.76 |  | 4.94 |  | 4.14 |  | 6.77 |  |  |  | 
CC(C)(C)C(=O)OCO[P@]1(=O)OC[C@H]2O[C@@H](n3cnc4c(N)ncnc43)[C@H](F)[C@@H]2OP(=O)(O)OC[C@H]2O[C@@H](n3cnc4c(N)ncnc43)[C@H](F)[C@@H]2O1 | 38 | 6.34 | 212 | 6.89 | 61 | 6.30 | 6.74 | 6 |  |  |  |  |  |  |  |  |  |  | 
CC(C)OC(=O)OCO[P@]1(=O)OC[C@H]2O[C@@H](n3cnc4c(N)ncnc43)[C@H](F)[C@@H]2O[P@](=O)(OCOC(=O)OC(C)C)OC[C@H]2O[C@@H](n3cnc4c(N)ncnc43)[C@H](F)[C@@H]2O1 |  | 6.51 |  | 7.52 |  | 6.42 | 7.52 |  | 6.44 | 414 | 6.80 | 51 | 6.46 | 90 |  |  |  |  | 
Nc1ncnc2c1ncn2[C@@H]1O[C@@H]2COP(=O)(O)O[C@H]3[C@@H](F)[C@H](n4cnc5c(N)ncnc54)O[C@@H]3COP(=O)(O)O[C@H]2[C@H]1F |  | 4.02 |  | 5.10 |  | 4.72 | 5.99 |  | 4.29 |  | 5.08 |  | 4.89 |  | 6.85 | 6.74 | 6.89 |  | 7.70
Nc1nc2c(ncn2[C@@H]2O[C@@H]3COP(=O)(O)O[C@H]4[C@@H](O)[C@H](n5cnc6c(N)ncnc65)O[C@@H]4COP(=O)(O)O[C@H]3[C@H]2O)c(=O)[nH]1 |  |  |  |  |  |  |  |  | 4.57 |  | 4.82 |  | < 3.52 |  |  | 5.37 |  |  | 
Nc1ncnc2c1ncn2[C@@H]1O[C@@H]2CO[P@@](=O)(OCOC(=O)c3ccccc3)O[C@H]3[C@@H](F)[C@H](n4cnc5c(N)ncnc54)O[C@@H]3COP(=O)(O)O[C@H]2[C@H]1F | 11 | 5.51 | 31 | 6.40 | 20 | 5.76 | 6.57 | 4 |  |  |  |  |  |  |  |  |  |  | 
CC(C)OC(=O)OCO[P@@]1(=O)OC[C@H]2O[C@@H](n3cnc4c(N)ncnc43)[C@H](F)[C@@H]2O[P@](=O)(OCOC(=O)OC(C)C)OC[C@H]2O[C@@H](n3cnc4c(N)ncnc43)[C@H](F)[C@@H]2O1 |  | 6.03 |  | 6.77 |  | 6.01 | 6.96 |  | 5.89 | 40 | 5.83 | 6 | 6.15 | 45 |  |  |  |  | 
CCC(CC)C(=O)OCO[P@@]1(=O)OC[C@H]2O[C@@H](n3cnc4c(N)ncnc43)[C@H](F)[C@@H]2O[P@](=O)(OCOC(=O)C(CC)CC)OC[C@H]2O[C@@H](n3cnc4c(N)ncnc43)[C@H](F)[C@@H]2O1 |  | 6.64 |  | 7.52 |  | 6.46 | 7.30 |  | 6.59 | 195 | 7.52 | 285 | 7.15 | 432 |  |  |  |  | 
CC(C)OC(=O)OCO[P@]1(=O)OC[C@H]2O[C@@H](n3cnc4c(N)ncnc43)[C@H](F)[C@@H]2OP(=O)(O)OC[C@H]2O[C@@H](n3cnc4c(N)ncnc43)[C@H](F)[C@@H]2O1 | 11 | 5.71 | 50 | 6.49 | 25 | 5.77 | 6.70 | 5 |  |  |  |  |  |  |  |  |  |  | 
